Measured values: patent US4656173A, “Antipsychotic benzisothiazole S-oxide compound” (Bristol-Myers Company, priority 1985, dated 1987)

Experiments:
[1] = Kwan and Heimlich, Internat. J. of Pharmaceutics, 6, (1980) 237-241, cited for biotransformations; cited from earlier work
[2] = Antipsychotic activity testing of dioxide (II); details: in vivo
[3] = Blood plasma concentration after dosing of rats; format: in vivo; details: 30 minutes after dosing
From the text: In this regard, compound I represents an antipsychotic agent giving an improved neuropharmacological profile compared with BMY 13859.

[4] = Metabolic interconversion in humans; format: in vivo; details: high pressure liquid chromatography
From the text: (§1) Currently, there is insufficient information available to confirm that compound I is a metabolite of BMY 13859. […] Such interconversions have been previously reported, as for sulindac, supra.

[5] = biological target: Dopaminergic (D2) receptor binding site (Homo sapiens, UniProt P14416); experiment: In vitro receptor binding, dopaminergic (D2); details: predictive correlate: antipsychotic efficacy, EPS liability
[6] = biological target: Serotoninergic (S2) receptor binding site (Homo sapiens, UniProt P28223); experiment: In vitro receptor binding, serotoninergic (S2); details: predictive correlate: lack of EPS (?)
[7] = biological target: Muscarinic receptor binding site; experiment: In vitro receptor binding, muscarinic; details: predictive correlate: dry mouth, constipation
[8] = Metabolic interconversion in rats; format: in vivo
From the text: as §1

[9] = biological target: α-adrenergic (α1) receptor binding site; experiment: In vitro receptor binding, α-adrenergic (α1); details: predictive correlate: postural hypotension, palpitations
[10] = test system: apomorphine-induced stereotypy (dopaminergic activity in rats); experiment: Inhibition of Apomorphine-Induced (APO) Stereotypy; format: in vivo
From the text: 2. Inhibition of Apomorphine-Induced (APO) Stereotypy --an assessment of blockade of dopaminergic activity in rats as measured by attenuation of the behavioral syndrome caused by the dopamine agonist, apomorphine. cf: Janssen, et al., Arzneimittel. Forsch., 17, 841 (1966).

[11] = Catalepsy (induction); format: in vivo; details: rat, in vivo; oral; rats; read-out: oral ED50 in inducing catalepsy
From the text: (§2) 3. Catalepsy--drug-induced catalepsy in rats is predictive of potential extrapyramidal symptoms (EPS) in man. cf: Costall, et al, Psychopharmacologia, 34, 233-241 (1974); Berkson, J. Amer. Statist. Assoc., 48, 565-599 (1953).

[12] = test system: drug-induced catalepsy in rats; experiment: Catalepsy (induction); format: in vivo; details: oral
From the text: as §2

[13] = test system: avoidance response to electrical shock in trained fasted rats; experiment: Conditioned Avoidance Response (CAR); format: in vivo
From the text: 1. Conditioned Avoidance Response (CAR)--measure of a drug's tranquilizing activity as determined by its attenuation of avoidance response to electrical shock in trained fasted rats. cf: Albert, Pharmacologist, 4, 152 (1962); Wu, et al, J. Med. Chem., 12, 876-881 (1969).

Dopaminergic (D2) receptor binding site, sequence (P14416 whole entry): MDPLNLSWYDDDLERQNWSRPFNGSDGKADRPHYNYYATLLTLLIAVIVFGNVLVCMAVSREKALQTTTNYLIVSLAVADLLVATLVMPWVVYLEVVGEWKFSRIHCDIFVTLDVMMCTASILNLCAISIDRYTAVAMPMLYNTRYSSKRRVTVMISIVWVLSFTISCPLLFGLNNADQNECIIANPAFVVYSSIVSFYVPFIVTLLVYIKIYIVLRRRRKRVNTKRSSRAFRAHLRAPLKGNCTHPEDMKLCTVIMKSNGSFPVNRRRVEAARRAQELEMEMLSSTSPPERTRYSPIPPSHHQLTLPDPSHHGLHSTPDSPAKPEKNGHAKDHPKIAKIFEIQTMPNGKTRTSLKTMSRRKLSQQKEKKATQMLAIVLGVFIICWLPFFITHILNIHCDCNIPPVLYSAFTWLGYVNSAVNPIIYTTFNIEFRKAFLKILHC
Serotoninergic (S2) receptor binding site, sequence (P28223 whole entry): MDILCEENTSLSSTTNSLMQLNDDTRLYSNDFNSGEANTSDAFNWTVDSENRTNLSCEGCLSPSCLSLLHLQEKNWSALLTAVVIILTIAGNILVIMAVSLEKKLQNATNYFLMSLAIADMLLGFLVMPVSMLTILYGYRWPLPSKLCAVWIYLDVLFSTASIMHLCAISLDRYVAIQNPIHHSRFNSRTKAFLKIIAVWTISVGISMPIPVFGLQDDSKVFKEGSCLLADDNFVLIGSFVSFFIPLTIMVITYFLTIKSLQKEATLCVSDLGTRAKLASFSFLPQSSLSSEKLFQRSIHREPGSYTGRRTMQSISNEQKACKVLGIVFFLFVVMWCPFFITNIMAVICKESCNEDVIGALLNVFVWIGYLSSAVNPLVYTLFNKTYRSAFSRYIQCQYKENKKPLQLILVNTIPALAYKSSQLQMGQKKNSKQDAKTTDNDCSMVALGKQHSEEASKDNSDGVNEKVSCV

Compound | concentration of administered agent in blood plasma versus the other (interconverted) agent [3] | IC50 [5] [nM] | IC50 [6] [nM] | IC50 [7] [nM] | IC50 [9] [nM] | also measured
CC1=C(CC(=O)O)c2cc(F)ccc2C1=Cc1ccc([S+](C)[O-])cc1 (stereo not shown) [sulindac] | – | – | – | – | – | pharmacological activity of sulindac [1]: appears to reside only in the sulfide metabolite
O=C1CC2(CCCC2)CC(=O)N1CCCCN1CCN(C2=NS(=O)(=O)c3ccccc32)CC1 [II] | – | – | – | – | – | antipsychotic activity [2]: devoid of antipsychotic activity
O=C1CC2(CCCC2)CC(=O)N1CCCCN1CCN(c2nsc3ccccc23)CC1 [BMY 13859, reference compound] | several-fold higher in concentration | 10 | 1 | > 1000 | 50 | compound formed after administration of BMY 13859 [4]: a compound which co-elutes (high pressure liquid chromatography) with compound I is formed; compound formed after administration of BMY 13859 ([8]; high pressure liquid chromatography): a compound which co-elutes (high pressure liquid chromatography) with compound I is formed
O=C1CC2(CCCC2)CC(=O)N1CCCCN1CCN(c2n[s+]([O-])c3ccccc23)CC1 (stereo not shown) [Compound I, 8-[4-[4-(1-oxo-1,2-benzisothiazol-3-yl)-1-piperazinyl]butyl]-8-azaspiro[4.5]decane-7,9-dione] | several-fold higher in concentration | > 1000 | 300 | > 1000 | 330 | activity in the APO stereotypy test [10]: potent activity; ED50 [11]: > 30 mg/kg; activity in inducing catalepsy [12]: inactive; compound formed after administration of compound I [8]: authentic BMY 13859 is formed in rats; activity in the CAR test [13]: potent activity
